In PMC5218480 (PLoS ONE, 2017):

Tested on: MV-4-11 cells
Assay: Gene expression microarray analysis (Affymetrix PrimeView) and GSEA
Format: cell-based, human
Set-up: RFU PODN (11730768_x_at) / Fold change /veh PODN (11730768_x_at) / RFU LINC00158 (11744669_a_at) / Fold change /veh LINC00158 (11744669_a_at) / RFU DUSP10 (11751237_a_at) / Fold change /veh DUSP10 (11751237_a_at) / RFU ID3 (11757404_x_at) / Fold change /veh ID3 (11757404_x_at) / RFU PLEKHG5 (11737974_s_at) / Fold change /veh PLEKHG5 (11737974_s_at) / RFU LRRC4B (11730491_at) / Fold change /veh LRRC4B (11730491_at) / RFU GIMAP4 (11747438_a_at) / Fold change /veh GIMAP4 (11747438_a_at) / RFU KRT8 (11758183_x_at) / Fold change /veh KRT8 (11758183_x_at) / RFU CNN1 (11734310_a_at) / Fold change /veh CNN1 (11734310_a_at) / RFU VPS37D (11726825_at) / Fold change /veh VPS37D (11726825_at) / RFU C10orf10 (11716522_x_at) / Fold change /veh C10orf10 (11716522_x_at) / RFU KIR2DL2 /// KIR2DL4 /// KIR2DL5A /// KIR2DL5B /// KIR2DS1 /// KIR2DS2 /// KIR2DS3 /// KIR2DS4 /// KIR3DL3 /// KIR3DL3 /// KIR3DS1 (11738374_at) / Fold change /veh KIR2DL2 /// KIR2DL4 /// KIR2DL5A /// KIR2DL5B /// KIR2DS1 /// KIR2DS2 /// KIR2DS3 /// KIR2DS4 /// KIR3DL3 /// KIR3DL3 /// KIR3DS1 (11738374_at) / RFU C1QL1 (11718748_at) / Fold change /veh C1QL1 (11718748_at) / RFU TMPRSS4 (11747572_a_at) / Fold change /veh TMPRSS4 (11747572_a_at) / RFU HAMP (11756126_x_at) / Fold change /veh HAMP (11756126_x_at) / RFU RNFT2 (11725882_a_at) / Fold change /veh RNFT2 (11725882_a_at) / RFU NR4A2 (11747474_a_at) / Fold change /veh NR4A2 (11747474_a_at) / RFU ABCC12 (11746883_a_at) / Fold change /veh ABCC12 (11746883_a_at) / RFU TMEM136 (11760407_x_at) / Fold change /veh TMEM136 (11760407_x_at) / RFU CLDN22 /// WWC2 (11732394_at) / Fold change /veh CLDN22 /// WWC2 (11732394_at) / RFU HLA-DPB1 (11760878_x_at) / Fold change /veh HLA-DPB1 (11760878_x_at) / RFU SPINT1 (11716480_a_at) / Fold change /veh SPINT1 (11716480_a_at) / RFU GAP43 (11754022_s_at) / Fold change /veh GAP43 (11754022_s_at) / RFU A4GNT (11735810_at) / Fold change /veh A4GNT (11735810_at) / RFU PRB3 (11715151_x_at) / Fold change /veh PRB3 (11715151_x_at) / RFU TUBB4B (11761932_at) / Fold change /veh TUBB4B (11761932_at) / RFU CAPN14 (11732068_a_at) / Fold change /veh CAPN14 (11732068_a_at) / RFU TMCC2 (11721928_a_at) / Fold change /veh TMCC2 (11721928_a_at) / RFU IRGQ (11745062_a_at) / Fold change /veh IRGQ (11745062_a_at) / RFU FAM174B (11720279_a_at) / Fold change /veh FAM174B (11720279_a_at) / RFU TMPRSS4 (11748680_a_at) / Fold change /veh TMPRSS4 (11748680_a_at) / RFU FAM212B (11763350_a_at) / Fold change /veh FAM212B (11763350_a_at) / RFU PLEKHG5 (11743358_a_at) / Fold change /veh PLEKHG5 (11743358_a_at) / RFU ZSCAN30 (11745921_a_at) / Fold change /veh ZSCAN30 (11745921_a_at) / RFU CMKLR1 (11741424_a_at) / Fold change /veh CMKLR1 (11741424_a_at) / RFU LOC101060620 /// MAPK8IP1 (11723275_at) / Fold change /veh LOC101060620 /// MAPK8IP1 (11723275_at) / RFU SPTSSB (11747773_x_at) / Fold change /veh SPTSSB (11747773_x_at) / RFU PRSS12 (11739890_at) / Fold change /veh PRSS12 (11739890_at) / RFU BIN1 (11741810_x_at) / Fold change /veh BIN1 (11741810_x_at) / RFU WNT11 (11732464_a_at) / Fold change /veh WNT11 (11732464_a_at) / RFU C10orf10 (11716521_a_at) / Fold change /veh C10orf10 (11716521_a_at) / RFU C5orf56 (11738089_at) / Fold change /veh C5orf56 (11738089_at) / RFU CYB561 (11721691_x_at) / Fold change /veh CYB561 (11721691_x_at) / RFU ANKRD19P (11752326_a_at) / Fold change /veh ANKRD19P (11752326_a_at) / RFU OR2T12 /// OR2T33 /// OR2T8 (11738714_s_at) / Fold change /veh OR2T12 /// OR2T33 /// OR2T8 (11738714_s_at) / RFU VCAN (11748164_a_at) / Fold change /veh VCAN (11748164_a_at) / RFU JSRP1 (11732532_at) / Fold change /veh JSRP1 (11732532_at) / RFU KRTAP10-11 (11738290_x_at) / Fold change /veh KRTAP10-11 (11738290_x_at) / RFU MYO3A (11730013_a_at) / Fold change /veh MYO3A (11730013_a_at) / RFU EBF3 (11725865_a_at) / Fold change /veh EBF3 (11725865_a_at) / RFU CAMK2N1 (11719241_x_at) / Fold change /veh CAMK2N1 (11719241_x_at) / RFU C5orf56 (11738088_a_at) / Fold change /veh C5orf56 (11738088_a_at) / RFU OLFML3 (11715873_a_at) / Fold change /veh OLFML3 (11715873_a_at) / RFU LOC100653217 /// NTM (11731650_a_at) / Fold change /veh LOC100653217 /// NTM (11731650_a_at) / RFU MAPK11 (11762145_a_at) / Fold change /veh MAPK11 (11762145_a_at) / RFU FIZ1 (11724087_x_at) / Fold change /veh FIZ1 (11724087_x_at) / RFU OASL (11726364_x_at) / Fold change /veh OASL (11726364_x_at) / RFU SOX15 (11748057_x_at) / Fold change /veh SOX15 (11748057_x_at) / RFU CD79A (11719716_a_at) / Fold change /veh CD79A (11719716_a_at) / RFU HIST1H1D (11736915_at) / Fold change /veh HIST1H1D (11736915_at) / RFU CASKIN2 (11723855_a_at) / Fold change /veh CASKIN2 (11723855_a_at) / RFU LOC730098 (11760151_x_at) / Fold change /veh LOC730098 (11760151_x_at) / RFU OR4N2 (11742367_at) / Fold change /veh OR4N2 (11742367_at) / RFU PRRT2 (11749266_a_at) / Fold change /veh PRRT2 (11749266_a_at) / RFU SNX32 (11753110_a_at) / Fold change /veh SNX32 (11753110_a_at) / RFU CDHR5 (11726645_a_at) / Fold change /veh CDHR5 (11726645_a_at) / RFU RCAN1 (11760418_a_at) / Fold change /veh RCAN1 (11760418_a_at) / RFU FAM167A (11723789_a_at) / Fold change /veh FAM167A (11723789_a_at) / RFU FAM26E (11764081_at) / Fold change /veh FAM26E (11764081_at) / RFU ISYNA1 (11749810_s_at) / Fold change /veh ISYNA1 (11749810_s_at) / RFU ACY1 (11761880_at) / Fold change /veh ACY1 (11761880_at) / RFU 11764098_at / Fold change /veh 11764098_at / RFU SAMD14 (11745864_x_at) / Fold change /veh SAMD14 (11745864_x_at) / RFU NPB (11741838_a_at) / Fold change /veh NPB (11741838_a_at) / RFU TMPRSS6 (11731388_a_at) / Fold change /veh TMPRSS6 (11731388_a_at) / RFU KRTAP10-2 (11738614_at) / Fold change /veh KRTAP10-2 (11738614_at) / RFU ARHGAP8 /// PRR5-ARHGAP8 (11727945_x_at) / Fold change /veh ARHGAP8 /// PRR5-ARHGAP8 (11727945_x_at) / RFU KRTAP5-7 /// NADSYN1 (11734609_at) / Fold change /veh KRTAP5-7 /// NADSYN1 (11734609_at) / RFU RASL12 (11751679_a_at) / Fold change /veh RASL12 (11751679_a_at) / RFU CDKN2B (11736163_a_at) / Fold change /veh CDKN2B (11736163_a_at) / RFU PRF1 (11729649_at) / Fold change /veh PRF1 (11729649_at) / RFU, ZNF638 /// ZNF638-IT1 / Fold change vs veh, ZNF638 /// ZNF638-IT1 / RFU, PANK3 / Fold change vs veh, PANK3 / RFU, SH3YL1 / Fold change vs veh, SH3YL1 / RFU, ZEB2 / Fold change vs veh, ZEB2 / RFU, NRIP1 / Fold change vs veh, NRIP1 / RFU, PTTG1IP / Fold change vs veh, PTTG1IP / RFU, CAPN2 / Fold change vs veh, CAPN2 / RFU, MED14 / Fold change vs veh, MED14 / RFU, SNORA58 / Fold change vs veh, SNORA58 / RFU, C1orf63 / Fold change vs veh, C1orf63 / RFU, LRRFIP1 / Fold change vs veh, LRRFIP1 / RFU, NDUFAF7 / Fold change vs veh, NDUFAF7 / RFU, SLC12A2 / Fold change vs veh, SLC12A2 / RFU, IBTK / Fold change vs veh, IBTK / RFU, ESF1 / Fold change vs veh, ESF1 / Fold change vs veh, TMEM50B / RFU, TAOK1 / Fold change vs veh, TAOK1 / RFU, ACBD3 / Fold change vs veh, ACBD3 / RFU, TMA16 / Fold change vs veh, TMA16 / RFU, RWDD3 / Fold change vs veh, RWDD3 / RFU, BCAT1 / Fold change vs veh, BCAT1 / RFU, EDEM3 / Fold change vs veh, EDEM3 / RFU, TMEM33 / Fold change vs veh, TMEM33 / RFU, WDR75 / Fold change vs veh, WDR75 / RFU, AHCTF1 / Fold change vs veh, AHCTF1 / RFU, TFRC / Fold change vs veh, TFRC / RFU, ZDHHC17 / Fold change vs veh, ZDHHC17 / RFU, NOM1 / Fold change vs veh, NOM1 / RFU, ARL8B / Fold change vs veh, ARL8B / RFU, ZBTB11 / Fold change vs veh, ZBTB11 / RFU, TAMM41 / Fold change vs veh, TAMM41 / RFU, KIAA1704 /// LOC100996395 / Fold change vs veh, KIAA1704 /// LOC100996395 / RFU, ING1 / Fold change vs veh, ING1 / RFU, TRMT61B / Fold change vs veh, TRMT61B / RFU, FUBP3 / Fold change vs veh, FUBP3 / RFU, TP53 / Fold change vs veh, TP53 / RFU, TNKS2 / Fold change vs veh, TNKS2 / RFU, ZFP14 / Fold change vs veh, ZFP14 / RFU, ACTR2 / Fold change vs veh, ACTR2 / RFU, PPP3R1 / Fold change vs veh, PPP3R1 / RFU, PIK3R1 / Fold change vs veh, PIK3R1 / RFU, HNRNPA1 / Fold change vs veh, HNRNPA1 / RFU, RNF170 / Fold change vs veh, RNF170 / RFU, ZNF28 / Fold change vs veh, ZNF28 / RFU, RNGTT / Fold change vs veh, RNGTT / RFU, OGT / Fold change vs veh, OGT / RFU, BRD1 / Fold change vs veh, BRD1 / RFU, MARS / Fold change vs veh, MARS / RFU, ZNF655 / Fold change vs veh, ZNF655 / RFU, FAHD1 / Fold change vs veh, FAHD1 / RFU, BDP1 / Fold change vs veh, BDP1 / RFU, LRRCC1 / Fold change vs veh, LRRCC1 / RFU, ARID1A / Fold change vs veh, ARID1A / RFU, ZNF146 / Fold change vs veh, ZNF146 / RFU, ZNF330 / Fold change vs veh, ZNF330 / RFU, GPN3 / Fold change vs veh, GPN3 / RFU, C9orf123 / Fold change vs veh, C9orf123 / RFU, N4BP2L2 / Fold change vs veh, N4BP2L2 / RFU, ARFIP1 / Fold change vs veh, ARFIP1 / RFU, FAM179B / Fold change vs veh, FAM179B / RFU, BCL10 / Fold change vs veh, BCL10 / RFU, UHRF1BP1L / Fold change vs veh, UHRF1BP1L / RFU, BET1 / Fold change vs veh, BET1 / RFU, CNOT2 / Fold change vs veh, CNOT2 / RFU, ZNF268 / Fold change vs veh, ZNF268 / Fold change vs veh, ZNF507 / RFU, DGCR2 / Fold change vs veh, DGCR2 / RFU, WDSUB1 / Fold change vs veh, WDSUB1 / Fold change vs veh, HSP90B1 /// MIR3652 / RFU, ADSS / Fold change vs veh, ADSS / RFU, GK / Fold change vs veh, GK / RFU, ZNF148 / Fold change vs veh, ZNF148 / RFU, TAF9 / Fold change vs veh, TAF9 / RFU, SLC1A5 / Fold change vs veh, SLC1A5 / RFU, SLMO2 / Fold change vs veh, SLMO2 / RFU, ABCC4 / Fold change vs veh, ABCC4 / RFU, LOC101060439 /// RAP1B / Fold change vs veh, LOC101060439 /// RAP1B / RFU, RFX7 / Fold change vs veh, RFX7 / RFU, GTPBP10 / Fold change vs veh, GTPBP10 / RFU, CNEP1R1 / Fold change vs veh, CNEP1R1 / RFU, BIVM-ERCC5 /// ERCC5 / Fold change vs veh, BIVM-ERCC5 /// ERCC5 / RFU, ILF3 / Fold change vs veh, ILF3 / RFU 11762660_at / Fold change /veh 11762660_at / RFU VCAN (11757783_s_at) / Fold change /veh VCAN (11757783_s_at) / RFU DDX43 (11728927_at) / Fold change /veh DDX43 (11728927_at) / RFU KRT8 (11758188_x_at) / Fold change /veh KRT8 (11758188_x_at) / RFU NKD1 (11759106_at) / Fold change /veh NKD1 (11759106_at) / RFU SRD5A1 (11742802_a_at) / Fold change /veh SRD5A1 (11742802_a_at) / RFU TPSAB1 /// TPSB2 (11721975_s_at) / Fold change /veh TPSAB1 /// TPSB2 (11721975_s_at) / RFU GSTM3 (11746129_a_at) / Fold change /veh GSTM3 (11746129_a_at) / RFU IL23R (11737362_x_at) / Fold change /veh IL23R (11737362_x_at) / RFU TMEM51 (11727254_a_at) / Fold change /veh TMEM51 (11727254_a_at) / RFU PIWIL2 (11732686_x_at) / Fold change /veh PIWIL2 (11732686_x_at) / RFU ORM1 (11744905_x_at) / Fold change /veh ORM1 (11744905_x_at) / RFU CCDC152 (11743942_at) / Fold change /veh CCDC152 (11743942_at) / RFU ECM1 (11717891_a_at) / Fold change /veh ECM1 (11717891_a_at) / RFU IL23R (11748794_a_at) / Fold change /veh IL23R (11748794_a_at) / RFU TNFAIP8L3 (11732012_x_at) / Fold change /veh TNFAIP8L3 (11732012_x_at) / RFU MBOAT4 (11741988_at) / Fold change /veh MBOAT4 (11741988_at) / RFU 11764193_at / Fold change /veh 11764193_at / RFU TMEM53 (11763286_at) / Fold change /veh TMEM53 (11763286_at) / RFU MAGEB2 (11727129_at) / Fold change /veh MAGEB2 (11727129_at) / RFU TMEM200A (11744735_a_at) / Fold change /veh TMEM200A (11744735_a_at) / RFU CCDC152 (11751479_a_at) / Fold change /veh CCDC152 (11751479_a_at) / RFU FAM211A (11726209_a_at) / Fold change /veh FAM211A (11726209_a_at) / RFU RGS16 (11746705_a_at) / Fold change /veh RGS16 (11746705_a_at) / RFU VCAN (11755009_s_at) / Fold change /veh VCAN (11755009_s_at) / RFU RHOB (11743442_s_at) / Fold change /veh RHOB (11743442_s_at) / RFU RGS16 (11720943_a_at) / Fold change /veh RGS16 (11720943_a_at) / RFU RGS16 (11720944_at) / Fold change /veh RGS16 (11720944_at) / RFU, VPS4B / Fold change vs veh, VPS4B / RFU, CREB1 / Fold change vs veh, CREB1 / RFU, DNAJC13 / Fold change vs veh, DNAJC13 / RFU, GNAQ / Fold change vs veh, GNAQ / RFU, CDK5R1 / Fold change vs veh, CDK5R1 / RFU, ZRANB3 / Fold change vs veh, ZRANB3 / RFU, CUL4A / Fold change vs veh, CUL4A / RFU, CCNY / Fold change vs veh, CCNY / RFU, UFL1 / Fold change vs veh, UFL1 / RFU, COG3 / Fold change vs veh, COG3 / RFU, DIAPH2 / Fold change vs veh, DIAPH2 / RFU, SKA2 / Fold change vs veh, SKA2 / RFU, AFF3 / Fold change vs veh, AFF3 / RFU, LMF1 / Fold change vs veh, LMF1 / RFU, IPO11 / Fold change vs veh, IPO11 / RFU, DFFB / Fold change vs veh, DFFB / RFU, FOXP1 / Fold change vs veh, FOXP1 / RFU, CARD8 / Fold change vs veh, CARD8 / RFU, STRN3 / Fold change vs veh, STRN3 / RFU, ADK / Fold change vs veh, ADK / RFU, RASSF2 / Fold change vs veh, RASSF2 / RFU, WIPF1 / Fold change vs veh, WIPF1 / RFU, LARP1B / Fold change vs veh, LARP1B / RFU, RASA1 / Fold change vs veh, RASA1 / RFU, RB1 / Fold change vs veh, RB1 / RFU, PPFIA1 / Fold change vs veh, PPFIA1 / RFU, MAT2A / Fold change vs veh, MAT2A / RFU, CCT5 / Fold change vs veh, CCT5 / RFU, WDR92 / Fold change vs veh, WDR92 / RFU, CUX1 / Fold change vs veh, CUX1 / RFU, TTC7A / Fold change vs veh, TTC7A / RFU, TMEM135 / Fold change vs veh, TMEM135 / RFU, DEPTOR / Fold change vs veh, DEPTOR / RFU, CPM / Fold change vs veh, CPM / RFU, DNAJB6 / Fold change vs veh, DNAJB6 / RFU, CACNA2D3 / Fold change vs veh, CACNA2D3 / RFU, DTX4 / Fold change vs veh, DTX4 / RFU, TFCP2 / Fold change vs veh, TFCP2 / RFU, GMCL1 /// GMCL1P1 / Fold change vs veh, GMCL1 /// GMCL1P1 / RFU, AEBP2 / Fold change vs veh, AEBP2 / RFU, SNHG1 /// SNORD22 /// SNORD25 /// SNORD26 /// SNORD27 /// SNORD28 /// SNORD29 /// SNORD31 / Fold change vs veh, SNHG1 /// SNORD22 /// SNORD25 /// SNORD26 /// SNORD27 /// SNORD28 /// SNORD29 /// SNORD31 / Fold change (Aza/veh), C12orf56 (ProbeSet 11735607_a_at) / Fold change (ACY-1035/veh), C12orf56 (ProbeSet 11735607_a_at) / Fold change (Aza/veh), FGFR1OP (ProbeSet 11751329_s_at) / Fold change (ACY-1035/veh), FGFR1OP (ProbeSet 11751329_s_at) / Fold change (Aza/veh), VPS36 (ProbeSet 11739960_a_at) / Fold change (ACY-1035/veh), VPS36 (ProbeSet 11739960_a_at) / RFU SYPL1 (11715823_x_at) / Fold change /veh SYPL1 (11715823_x_at) / RFU IGFBP7 (11715501_s_at) / Fold change /veh IGFBP7 (11715501_s_at) / RFU REEP3 (11722064_at) / Fold change /veh REEP3 (11722064_at) / RFU IGLL1 (11728026_x_at) / Fold change /veh IGLL1 (11728026_x_at): dose or concentration left out as unconfirmed
Conditions: MV-4-11 cells, 48 hours

Nc1ncn([C@@H]2O[C@H](CO)[C@@H](O)[C@H]2O)c(=O)n1 [azacitidine]
Fold change /veh JSRP1 (11732532_at): 1.00
